Key:
[1] = tested on: cofactor F420 reductase from Methanobacterium thermoautotrophicum; details: as substrate of the F420 reductase; cited from earlier work
[2] = cited from earlier work
S. cerevisiae = assay type: cell-based, Saccharomyces cerevisiae
From the text: The third primary library (PL3) mediates TAN-1612 high-titer toxicity by merging three complimentary routes. This example (i) optimizes performance of an efflux pump in order to reduce intracellular TAN-1612 concentrations, (ii) screens a large number of wild yeast isolates for higher TAN-1612 tolerance and use them for background crossing and (iii) evolves the v2.0 producer for TAN-1612 resistance through random mutagenesis and selection. In preliminary results, TAN-1612 and anhydrotetracycline (Atc) growth inhibition in concentrations of 10 mg/L was confirmed. In order to increase TAN-1612 tolerance the v2.0 producer co-expresses the supposed efflux pump […]_48051 (GenBank: EHA19824.1) that was obtained by genome-mining from the natural producer strain A. niger. […] This can improve pump performance via gene titration and genome-mines other efflux pumps. PL3 further includes of a large number (>50) of wild S. cerevisiae isolates that are screened for higher tolerance to TAN-1612 using a growth-based microtiter plate assay.

[3] = tested on: Saccharomyces cerevisiae BJ5464; assay: Toxicity assay of TAN-1612 in Saccharomyces cerevisiae; assay type: cell-based
Protocol: The toxicity assay of TAN-1612 in Saccharomyces cerevisiae. BJ5464 strains were cultured in complete synthetic medium in presence of different tetracycline or its analogs. […] (FIG. 42B) BJ5464 strains were cultured in YPD: non-defined medium in presence of different tetracycline or its analogs. (FIG. 42A). […] (FIG. 43).

Row | Compound | Relative rate of acid hydrolysis (to OMe) [2] | growth inhibition in concentrations of (S. cerevisiae) | other results
1 | O=c1nc2n(C[C@H](O)[C@H](O)[C@H](O)CO)c3cc(O)ccc3cc-2c(=O)[nH]1 [Fo, 7,8-didemethyl-8-hydroxy-5-deazariboflavin] | – | – | Km [1]: 34 µM
2 | OCC1OC(OC23CC4CC(CC(C4)C2)C3)C(O)C(O)C1O (stereo not shown) | 48.5 | – | –
3 | COc1cc(O)c2c(O)c3c(cc2c1)CC1(O)CC(=O)C(C(C)=O)=C(O)C1(O)C3=O (stereo not shown) [TAN-1612] | – | 10 mg/L | toxicity at the range of ([3]; BJ5464 cultured in YPD non-defined medium): 50 to 100 mg/L; toxicity at the range of ([3]; BJ5464 cultured in complete synthetic medium): 1 to 10 mg/L
4 | OCC1OC(OC(c2ccccc2)c2ccccc2)C(O)C(O)C1O (stereo not shown) | 25.6 | – | –
5 | Cc1c2c(c(O)c3c(O)cccc13)C(=O)[C@]1(O)C(=O)C(C(N)=O)=C(O)[C@@H](N(C)C)[C@@H]1C2 [anhydrotetracycline, reference compound] | – | 10 mg/L | –
